{"source": "paper PMC10557102", "about": "(Pharmacology Research & Perspectives, 2023)", "key": {"[1]": {"target": "T1, CYP2D6 (Homo sapiens, UniProt P10635)", "T1 sequence (P10635 whole entry)": "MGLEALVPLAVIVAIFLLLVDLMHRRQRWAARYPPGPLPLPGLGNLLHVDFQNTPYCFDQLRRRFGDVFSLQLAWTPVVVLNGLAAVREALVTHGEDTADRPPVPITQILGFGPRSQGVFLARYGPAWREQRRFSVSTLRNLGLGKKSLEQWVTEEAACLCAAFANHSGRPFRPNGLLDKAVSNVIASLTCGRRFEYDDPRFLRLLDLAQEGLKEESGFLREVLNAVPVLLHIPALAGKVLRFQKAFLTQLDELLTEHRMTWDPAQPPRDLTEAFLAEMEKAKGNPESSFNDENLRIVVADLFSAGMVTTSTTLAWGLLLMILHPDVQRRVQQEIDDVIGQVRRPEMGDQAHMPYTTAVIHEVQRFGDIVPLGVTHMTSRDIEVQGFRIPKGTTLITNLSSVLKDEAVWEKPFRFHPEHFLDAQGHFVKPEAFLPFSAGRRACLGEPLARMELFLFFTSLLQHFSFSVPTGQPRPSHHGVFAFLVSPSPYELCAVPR", "experiment": "Time-dependent", "format": "in vitro ADME", "settings": "30 min pre‐incubation with/without NADPH; dextromethorphan N‐demethylation"}, "[2]": {"target": "T2, CYP2C19 (Homo sapiens, UniProt P33261)", "T2 sequence (P33261 whole entry)": "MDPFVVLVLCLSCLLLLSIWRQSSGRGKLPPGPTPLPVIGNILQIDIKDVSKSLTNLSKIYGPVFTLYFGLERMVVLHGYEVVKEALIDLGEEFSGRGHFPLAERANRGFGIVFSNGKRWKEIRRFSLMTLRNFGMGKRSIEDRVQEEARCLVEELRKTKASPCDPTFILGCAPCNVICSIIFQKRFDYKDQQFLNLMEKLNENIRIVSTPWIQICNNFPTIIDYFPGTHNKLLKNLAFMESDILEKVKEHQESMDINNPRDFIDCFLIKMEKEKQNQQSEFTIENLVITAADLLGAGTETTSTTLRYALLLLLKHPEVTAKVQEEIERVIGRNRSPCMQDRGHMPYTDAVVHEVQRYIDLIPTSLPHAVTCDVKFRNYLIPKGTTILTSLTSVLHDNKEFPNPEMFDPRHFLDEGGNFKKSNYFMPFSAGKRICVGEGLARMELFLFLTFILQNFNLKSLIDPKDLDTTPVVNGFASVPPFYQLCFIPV", "experiment": "in vitro", "format": "in vitro ADME"}, "[3]": {"target": "T3, CYP3A4 (Homo sapiens, UniProt P08684)", "T3 sequence (P08684 whole entry)": "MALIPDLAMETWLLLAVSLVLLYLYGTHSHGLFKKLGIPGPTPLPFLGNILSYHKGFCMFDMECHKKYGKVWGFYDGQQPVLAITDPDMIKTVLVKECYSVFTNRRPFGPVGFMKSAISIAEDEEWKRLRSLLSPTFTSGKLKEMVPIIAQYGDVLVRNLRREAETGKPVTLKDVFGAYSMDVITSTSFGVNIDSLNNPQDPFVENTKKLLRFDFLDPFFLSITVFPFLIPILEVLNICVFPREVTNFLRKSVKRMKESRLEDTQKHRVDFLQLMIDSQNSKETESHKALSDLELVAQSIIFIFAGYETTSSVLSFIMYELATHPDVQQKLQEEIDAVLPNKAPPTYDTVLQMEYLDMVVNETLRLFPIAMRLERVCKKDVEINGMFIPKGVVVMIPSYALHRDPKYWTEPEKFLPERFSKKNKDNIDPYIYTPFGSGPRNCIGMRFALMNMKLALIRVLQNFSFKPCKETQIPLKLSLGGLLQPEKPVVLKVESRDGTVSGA", "experiment": "Competitive", "format": "in vitro ADME"}, "[4]": {"tested_on": "healthy subjects", "experiment": "Safety and tolerability in the clinical study"}, "[5]": {"target": "T4, CYP2C9 (Homo sapiens, UniProt P11712)", "T4 sequence (P11712 whole entry)": "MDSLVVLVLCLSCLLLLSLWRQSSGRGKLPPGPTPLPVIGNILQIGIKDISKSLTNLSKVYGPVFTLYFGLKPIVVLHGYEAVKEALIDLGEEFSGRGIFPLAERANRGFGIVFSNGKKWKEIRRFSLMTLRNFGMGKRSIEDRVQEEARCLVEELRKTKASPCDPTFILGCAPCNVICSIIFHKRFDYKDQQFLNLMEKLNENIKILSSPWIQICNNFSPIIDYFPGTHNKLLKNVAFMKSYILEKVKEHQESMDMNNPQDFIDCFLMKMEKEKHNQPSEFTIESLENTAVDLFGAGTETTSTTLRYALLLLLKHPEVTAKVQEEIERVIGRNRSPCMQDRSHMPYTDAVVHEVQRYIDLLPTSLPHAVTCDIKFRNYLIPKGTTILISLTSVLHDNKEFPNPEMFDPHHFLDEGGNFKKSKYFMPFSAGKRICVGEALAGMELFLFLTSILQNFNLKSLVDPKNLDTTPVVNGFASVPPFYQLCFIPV", "experiment": "Competitive", "format": "in vitro ADME"}, "[6]": {"target": "T2, CYP2C19"}, "[7]": {"tested_on": "human OX1R", "settings": "OX1R vs OX2R; cited from earlier work"}, "[8]": {"target": "T4, CYP2C9", "experiment": "Covalent binding", "format": "in vitro ADME"}, "[9]": {"target": "T3, CYP3A4", "experiment": "Time-dependent", "format": "in vitro ADME", "settings": "for IC50 shift: 30 min pre‐incubation with/without NADPH"}, "[10]": {"target": "T5, CYP2B6 (Homo sapiens, UniProt P20813)", "T5 sequence (P20813 1-491)": "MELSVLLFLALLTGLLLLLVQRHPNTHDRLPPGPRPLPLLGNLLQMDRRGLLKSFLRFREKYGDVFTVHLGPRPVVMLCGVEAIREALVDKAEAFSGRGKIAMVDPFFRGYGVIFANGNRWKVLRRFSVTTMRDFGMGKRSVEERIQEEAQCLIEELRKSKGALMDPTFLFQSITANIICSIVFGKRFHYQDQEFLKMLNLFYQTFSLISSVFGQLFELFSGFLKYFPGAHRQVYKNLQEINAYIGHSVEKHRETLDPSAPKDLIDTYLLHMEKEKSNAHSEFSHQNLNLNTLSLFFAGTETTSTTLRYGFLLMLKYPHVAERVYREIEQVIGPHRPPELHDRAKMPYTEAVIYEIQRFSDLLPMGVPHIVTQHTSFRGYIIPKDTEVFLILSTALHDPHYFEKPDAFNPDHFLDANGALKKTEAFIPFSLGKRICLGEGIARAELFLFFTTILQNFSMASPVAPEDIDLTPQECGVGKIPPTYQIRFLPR", "experiment": "Competitive", "format": "in vitro ADME"}, "[11]": {"target": "T1, CYP2D6", "experiment": "Competitive", "format": "in vitro ADME"}, "[12]": {"target": "T5, CYP2B6", "experiment": "Time-dependent", "format": "in vitro ADME", "settings": "30 min pre‐incubation with/without NADPH; bupropion hydroxylation"}, "[13]": {"target": "T2, CYP2C19", "experiment": "Covalent binding", "format": "in vitro ADME", "settings": "data not shown"}, "[14]": {"target": "T2, CYP2C19", "experiment": "biochemical", "format": "in vitro ADME"}, "[15]": {"target": "T3, CYP3A4", "settings": "in man; cited from earlier work"}, "[16]": {"experiment": "Plasma pharmacokinetics of nivasorexant 100 mg b.i.d. in healthy subjects", "settings": "for unbound peak concentration: corrected for molecular weight and f u,p 0.01"}, "[17]": {"tested_on": "CYP2C9", "experiment": "Time-dependent", "format": "in vitro ADME, human", "settings": "30 min pre‐incubation with/without NADPH; diclofenac 4′‐hydroxylation"}, "[18]": {"target": "T6, CYP2C8 (Homo sapiens, UniProt P10632)", "T6 sequence (P10632 1-490)": "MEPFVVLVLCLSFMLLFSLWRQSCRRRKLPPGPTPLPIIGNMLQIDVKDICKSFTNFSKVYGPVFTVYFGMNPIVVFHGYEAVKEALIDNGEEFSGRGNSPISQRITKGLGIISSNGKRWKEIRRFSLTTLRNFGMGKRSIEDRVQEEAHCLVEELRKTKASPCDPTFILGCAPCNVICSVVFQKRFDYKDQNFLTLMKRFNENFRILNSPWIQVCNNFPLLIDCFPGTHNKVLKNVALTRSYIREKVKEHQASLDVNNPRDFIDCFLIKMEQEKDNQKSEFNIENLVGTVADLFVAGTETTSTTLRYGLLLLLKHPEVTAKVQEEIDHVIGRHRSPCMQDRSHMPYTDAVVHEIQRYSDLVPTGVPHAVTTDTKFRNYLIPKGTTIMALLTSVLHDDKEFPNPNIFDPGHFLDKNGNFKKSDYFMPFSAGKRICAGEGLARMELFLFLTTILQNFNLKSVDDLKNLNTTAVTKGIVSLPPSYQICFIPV", "experiment": "Competitive", "format": "in vitro ADME"}, "[19]": {"target": "T3, CYP3A4", "settings": "cited from earlier work"}, "[20]": {"tested_on": "CYP2C9"}, "[21]": {"settings": "after 8 days / repeated 100 mg b.i.d., steady state"}}, "note": "Read-outs that look alike come from different tables or passages of the source.", "data": [{"smiles": "Cc1ccc(C(=O)N2CCOC[C@H]2Cc2cccc(-n3nccn3)c2)c(-n2nccn2)c1", "note": "[nivasorexant]", "values": [{"measurement": "IC50 shift", "setting": "[1]", "value": "no effect and none"}, {"measurement": "IC50 shift at 30 min", "setting": "[2]; human, recombinant enzyme", "value": 67}, {"measurement": "K I (inhibition constant of the CYP enzyme inactivation)", "setting": "[2]; recombinant CYP2C19", "value": 4.2, "unit": "µM"}, {"measurement": "k inact (rate of enzyme inactivation)", "setting": "[2]; recombinant CYP2C19", "value": 0.079, "unit": "min⁻¹"}, {"measurement": "IC50", "setting": "[3]", "value": 44, "unit": "µM"}, {"measurement": "IC50", "setting": "[3]; IC50 (range over both probe substrates), midazolam and testosterone as probes", "value": "19 to 44", "unit": "µM"}, {"measurement": "IC50", "setting": "[3]; IC50, human liver microsomes, midazolam 1′‐hydroxylation", "value": 19, "unit": "µM"}, {"measurement": "safety and tolerability (in words)", "setting": "[4]; Day 1 to Day 15, healthy subjects", "value": "safe and well tolerated"}, {"measurement": "somnolence, subjects (%)", "setting": "[4]; Treatment B: cocktail + initial 100 mg nivasorexant, Day 8", "value": "1 (4.5%) subjects (%)"}, {"measurement": "somnolence, subjects (%)", "setting": "[4]; Treatment C: nivasorexant 100 mg b.i.d. alone, Day 9–14", "value": "2 (9.1%) subjects (%)"}, {"measurement": "somnolence, subjects (%)", "setting": "[4]; Treatment D: cocktail + nivasorexant at steady state, Day 15", "value": "5 (23.8%) subjects (%)"}, {"measurement": "IC50", "setting": "[5]", "value": 8.6, "unit": "µM"}, {"measurement": "Ki", "setting": "[5]", "value": 5, "unit": "µM"}, {"measurement": "CYP2C19 inhibitor classification according to regulatory guidance", "setting": "[6]; after 1 day of 100 mg b.i.d.", "value": "moderate (≥ 2‐ to <5‐fold)"}, {"measurement": "CYP2C19 inhibitor classification according to regulatory guidance", "setting": "[6]; [21]", "value": "strong (≥5‐fold)"}, {"measurement": "higher potency at human OX1R than at human OX2R", "setting": "[7]", "value": "approximately 60 fold"}, {"measurement": "covalent binding (in words)", "setting": "[8]", "value": "covalent binding"}, {"measurement": "IC50 shift", "setting": "[9]; midazolam 1′‐hydroxylation", "value": "none"}, {"measurement": "IC50 shift", "setting": "[9]; testosterone 6β‐hydroxylation", "value": "none"}, {"measurement": "effect of pre‐incubation on CYP3A4 activity (in words, probe not stated)", "setting": "[9]; time‐dependent inhibition assay", "value": "no pre‐incubation effect"}, {"measurement": "IC50", "setting": "[10]", "value": "> 100", "unit": "µM"}, {"measurement": "IC50", "setting": "[11]", "value": "> 100", "unit": "µM"}, {"measurement": "IC50 shift", "setting": "[12]", "value": "none"}, {"measurement": "covalent binding (in words)", "setting": "[13]", "value": "covalently binds"}, {"measurement": "IC50", "setting": "[14]", "value": 1.6, "unit": "µM"}, {"measurement": "extent of microsomal metabolism dependent on CYP3A4", "setting": "[15]", "value": "approximately 90%"}, {"measurement": "time to steady‐state trough concentrations", "setting": "[16]; 100 mg b.i.d.", "value": "3 to 4", "unit": "days"}, {"measurement": "accumulation index (AIX)", "setting": "[16]; AUCτ Day 15 / AUCτ Day 8, 8 days of 100 mg b.i.d.", "value": 1.8}, {"measurement": "unbound peak concentration", "setting": "[16]; Day 8", "value": 16, "unit": "nM"}, {"measurement": "unbound peak concentration", "setting": "[16]; Day 15", "value": 29, "unit": "nM"}, {"measurement": "AUC", "setting": "[16]; both, human, plasma, oral, AUCτ, Trt D, Day 15, repeated 100 mg b.i.d., geometric mean (95% CI)", "value": 8560, "unit": "ng·h/mL"}, {"measurement": "Cmax", "setting": "[16]; both, human, plasma, oral, C max, Trt D, Day 15, repeated 100 mg b.i.d., steady state, geometric mean (95% CI)", "value": 1250, "unit": "ng/mL"}, {"measurement": "t max", "setting": "[16]; both, human, plasma, oral, t max, Trt D, Day 15, repeated 100 mg b.i.d., median (range)", "value": 2, "unit": "h"}, {"measurement": "IC50 shift", "setting": "[17]", "value": "no effect and no pre‐incubation effect and none"}, {"measurement": "IC50", "setting": "[18]", "value": 25, "unit": "µM"}, {"measurement": "time to steady‐state conditions", "setting": "[19]; 200 mg b.i.d. nivasorexant", "value": "4 to 5", "unit": "days"}, {"measurement": "CYP3A4 inhibitor classification", "setting": "[19]; after b.i.d. administration of 200 mg for 10 days", "value": "moderate (≥ 2‐ to <5‐fold)"}, {"measurement": "CYP2C9 inhibitor classification according to regulatory guidance", "setting": "[20]; [21]", "value": "weak (≥1.25‐ to <2‐fold)"}, {"measurement": "perpetrator DDI potential with respect to CYP2C9 (in words)", "setting": "[20]; initial administration on Day 8, 90% CIs of GMR within 0.8–1.25", "value": "lack of perpetrator DDI potential"}]}]}
